Experimental data as given in PubChem BioAssay (NCI).
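Each compound was tested at five concentrations against cells in 96-well plates for 48 hours. GI50 is the concentration that inhibits growth by half. TGI denotes the concentration required for complete inhibition of growth.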

How the values were obtained:
Experiment in all cases: DTP human tumour cell line panel, 48 h
PC-3 prostate = system: PC-3 prostate
NCI-H522 lung = system: NCI-H522 lung
NCI-H226 lung = system: NCI-H226 lung
HL-60(TB) leukemia = system: HL-60(TB) leukemia
UACC-257 melanoma = system: UACC-257 melanoma
SNB-19 CNS = system: SNB-19 CNS
HCT-15 colon = system: HCT-15 colon
OVCAR-3 ovarian = system: OVCAR-3 ovarian
OVCAR-5 ovarian = system: OVCAR-5 ovarian
RPMI-8226 leukemia = system: RPMI-8226 leukemia

SMILES | GI50 (PC-3 prostate) [nM] | TGI (PC-3 prostate) [µM] | GI50 (NCI-H522 lung) [nM] | TGI (NCI-H522 lung) [µM] | GI50 (NCI-H226 lung) [nM] | TGI (NCI-H226 lung) [µM] | GI50 (HL-60(TB) leukemia) [nM] | TGI (HL-60(TB) leukemia) [µM] | GI50 (UACC-257 melanoma) [nM] | TGI (UACC-257 melanoma) [µM] | GI50 (SNB-19 CNS) [nM] | TGI (SNB-19 CNS) [µM] | GI50 (HCT-15 colon) [nM] | TGI (HCT-15 colon) [µM] | GI50 (OVCAR-3 ovarian) [nM] | TGI (OVCAR-3 ovarian) [µM] | GI50 (OVCAR-5 ovarian) [µM] | TGI (OVCAR-5 ovarian) [µM] | GI50 (RPMI-8226 leukemia) [nM] | TGI (RPMI-8226 leukemia) [µM]
O=[N+]([O-])c1ccc(Sc2ncccn2)c([N+](=O)[O-])c1 | 2130 | 15.1 | 1640 | 3.11 | 4280 | 18.2 | 2370 | 15.8 | 5330 | 19.1 | 10800 | 23.1 | 2670 | 11.1 | 3380 | 10.3 | 7.35 | 19.8 | 1890 | 5.4
O=C1C=C[C@]2(C[C@@H](c3cccc(C(F)(F)F)c3)O[C@@H](c3cccc(C(F)(F)F)c3)O2)O1 | 2400 | 8.27 | 1590 | 3.99 | 2180 | 10.5 | 1880 | 8.34 | 2290 | 5.77 | 3130 | 16.1 | 1660 | 4.13 | 1600 | 3.71 | 7.76 | 26.1 | 1120 | 5.97
Cc1ccc(S(=O)(=O)NC(CCC(=O)Nc2ccc(Cl)cc2)C(=O)Nc2ccc(Cl)cc2)cc1 (stereo not given) | 396 | 6.33 | 496 | 7.01 | 841 | 5.67 | 369 | 5.76 | 702 | 7.5 | 707 | 4.4 | 118 | 7.36 | 930 | 5.8 | 4.31 | 11.4 | 826 | 7.43
Cc1cc(NC(=O)C2c3ccccc3C(=O)N(CC(C)C)C2c2cccs2)no1 (stereo not given) | 34800 | > 100 | 52200 | > 100 | > 100000 | > 100 | 39000 | > 100 | > 100000 | > 100 | 46200 | > 100 | 70600 | > 100 | 90100 | > 100 | > 100 | > 100 | 45500 | > 100
O=C(c1cccs1)c1c(C(F)(F)F)n([O-])c2ccc(C(F)(F)F)cc2[n+]1=O | 118 | 0.259 | 204 | 0.455 | 524 | 1.42 | 145 | 0.526 | 1590 | 3.15 | 1110 | 2.53 | 286 | 0.73 | 258 | 0.744 | 0.205 | 0.494 | 279 | 1.12
OB([O][Hg][c]1ccccc1)[O][Hg][c]1ccccc1 | 758 | 2.42 | 27.9 | 0.0752 | 1520 | 4.33 | 88.6 | 0.378 | 317 | 1.14 | 1460 | 2.84 | 141 | 0.354 | 81.2 | 0.213 | 1.88 | 3.33 | 211 | 0.592
